In BindingDB's records for doi:10.1016/j.ejmech.2023.115129 (n/a, 2023):

Molecular target: Replicase polyprotein 1ab (Severe acute respiratory syndrome coronavirus 2, UniProt P0DTD1)
Test: Inhibition of full-length recombinant SARS-CoV-2 3CL protease expressed in Escherichia coli BL21 (DE3) cells using fluorogenic MCA-AVLQSGFR-Lys (Dnp)-Lys-NH2 substrate preincubated for 10 mins followed by substrate addition measured for 3.5 mins by FRET assay

Question: For `C/N=c1\nc(-c2ccc(OC)c(OC)c2)n(-c2ccc(F)cc2)s1`, which IC50 is on record?
Answer: 0.252 µM
